Data: patent US10301265B2 (priority 2008, dated 2019)
Several values for one entry are separate records, joined by “and”; a condition that tells them apart may be missing. Identical values can stand only once. Like-named read-outs stand apart in the source and are kept apart here. Marks after values point to notes of the source that are not given here.

Experiments:
[1] = molecular target: BoNT/A (Clostridium botulinum, UniProt P0DPI0); experiment: biochemical; details: for inhibition at 5 µM: read-out: % Inhibition against BoNT/A (5 μM)
[2] = tested on: BoNT/A-induced neuromuscular block in mouse phrenic nerve hemidiaphragm
[3] = molecular target: recombinant full-length BoNT/A light chain (rALC) (Clostridium botulinum, UniProt P0DPI0); experiment: biochemical; details: read-out: % Inhibition Against rALC
[4] = tested on: neuroblastoma N2a cells; details: for concentration well-tolerated by the cells / concentration toxic to N2a cells: mouse
[5] = molecular target: recombinant full-length BoNT/B light chain (rBLC) (Clostridium botulinum, UniProt P10844); experiment: biochemical; details: for inhibition at 20 µM: read-out: % Inhibition Against rBLC
[6] = tested on: BoNT/A-mediated cleavage of intracellular SNAP-25 in N2a cells; format: cell-based, murine; details: 10 μM

Chain of recombinant full-length BoNT/A light chain (rALC) (P0DPI0 2-448 limits assumed): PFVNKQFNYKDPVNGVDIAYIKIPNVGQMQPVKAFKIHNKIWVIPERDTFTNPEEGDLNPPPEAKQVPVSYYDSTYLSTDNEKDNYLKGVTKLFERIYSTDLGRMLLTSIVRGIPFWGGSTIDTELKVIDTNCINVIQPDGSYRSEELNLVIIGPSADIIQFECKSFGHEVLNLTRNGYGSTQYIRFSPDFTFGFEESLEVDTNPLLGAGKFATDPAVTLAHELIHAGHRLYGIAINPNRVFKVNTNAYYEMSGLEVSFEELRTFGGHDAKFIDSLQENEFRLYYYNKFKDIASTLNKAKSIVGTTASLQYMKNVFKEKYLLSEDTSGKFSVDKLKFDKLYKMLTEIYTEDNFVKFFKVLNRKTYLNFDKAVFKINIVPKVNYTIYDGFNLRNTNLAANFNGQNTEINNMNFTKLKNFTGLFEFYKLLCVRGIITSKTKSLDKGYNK
Chain of BoNT/A (P0DPI0 1-448 limits assumed): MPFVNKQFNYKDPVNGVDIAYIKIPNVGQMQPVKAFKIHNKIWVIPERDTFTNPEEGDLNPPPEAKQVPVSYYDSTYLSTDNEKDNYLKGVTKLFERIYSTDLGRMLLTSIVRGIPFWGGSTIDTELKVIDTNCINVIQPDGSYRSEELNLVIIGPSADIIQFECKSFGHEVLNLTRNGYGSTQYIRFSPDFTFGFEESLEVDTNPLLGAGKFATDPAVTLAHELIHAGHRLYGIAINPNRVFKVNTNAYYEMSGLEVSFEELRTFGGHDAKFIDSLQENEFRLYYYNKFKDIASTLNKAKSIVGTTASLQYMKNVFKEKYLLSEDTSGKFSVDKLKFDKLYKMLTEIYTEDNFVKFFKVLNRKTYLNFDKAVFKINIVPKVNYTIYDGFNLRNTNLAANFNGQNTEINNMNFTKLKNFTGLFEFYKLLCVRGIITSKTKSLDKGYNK
Chain of recombinant full-length BoNT/B light chain (rBLC) (P10844 2-441 limits assumed): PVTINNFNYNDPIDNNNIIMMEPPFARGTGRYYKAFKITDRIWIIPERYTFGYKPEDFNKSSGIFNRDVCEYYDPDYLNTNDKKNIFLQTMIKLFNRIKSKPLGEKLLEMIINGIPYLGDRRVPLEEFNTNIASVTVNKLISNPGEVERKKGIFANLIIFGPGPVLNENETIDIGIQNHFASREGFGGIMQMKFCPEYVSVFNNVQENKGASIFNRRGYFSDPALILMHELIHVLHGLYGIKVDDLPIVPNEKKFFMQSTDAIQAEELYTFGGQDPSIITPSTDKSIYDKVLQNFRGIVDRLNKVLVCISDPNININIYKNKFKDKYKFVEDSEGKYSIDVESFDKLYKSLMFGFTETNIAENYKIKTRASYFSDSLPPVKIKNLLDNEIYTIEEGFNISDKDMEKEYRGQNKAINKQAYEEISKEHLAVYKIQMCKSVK

Row | Molecule | IC50 [1] [nM] | inhibition at 5 µM [1] [%] | inhibition at 20 µM [3] [%] | cell toxicity [4] | inhibition at 20 µM [5] [%] | further results
1 | Oc1c(C(Nc2cccnc2)c2ccc(F)cc2)ccc2cccnc12 (stereo not drawn) [Compound 5116-050A] | 1200 | 86.7 | – | – | – | –
2 | Oc1c(C(Nc2cccnc2)c2ccc(C(F)(F)F)cc2)ccc2cccnc12 (racemic) [CB 7967495] | – | – | 92.7 ± 1.5 | non-toxic to cells | 30.2 ± 2.4 | effective concentration of inhibitor required for maximum protection [2]: 5 µM; concentration well-tolerated by the cells [4]: up to 50 μM; inhibition of SNAP-25 cleavage [6]: near-to-complete inhibition
3 | Cc1ccc2ccc(C(Nc3cccnc3)c3ccccc3)c(O)c2n1 (stereo not drawn) [Compound 5116-047A] | – | 83 | – | – | – | IC50 ([1]; read-out: IC50): 1400 nM
4 | Oc1c(C(Nc2cccnc2)c2ccccc2F)cc(Cl)c2cccnc12 (stereo not drawn) [Compound 5116-052A] | < 1000 | 97.5 | – | – | – | –
5 | Cc1ccc2ccc(C(Nc3cccnc3)c3ccc(F)cc3)c(O)c2n1 (stereo not drawn) [Compound 5116-048A] | – | 87 | – | – | – | IC50 ([1]; read-out: IC50): 800 nM
6 | Nc1cc(C(Nc2ccccn2)c2ccccc2)c(O)c2ncccc12 (stereo not drawn) [Compound 4874-051A] | 2200 | 94 | – | – | – | –
7 | Oc1c(C(Nc2cccc3cccnc23)c2ccccc2)ccc2cccnc12 (racemic) [NSC 84096] | – | – | 91.9 ± 1.7 | non-toxic to cells | 6.9 | Average Time to 50% Loss of Twitch Tension [2]: 59.7 ± 4.9^d min; effective concentration of inhibitor required for maximum protection [2]: 20 µM; concentration well-tolerated by the cells [4]: up to 50 μM; protection from SNAP-25 cleavage [6]: 66%
8 | O=[N+]([O-])c1ccc(NC(c2ccccc2)c2ccc3cccnc3c2O)cc1 (stereo not drawn) [NSC 1010] | – | – | – | – | – | concentration toxic to N2a cells [4]: ≥ 10 µM; inhibition of BoNT serotype B light chain [5]: failed to inhibit
9 | CCOc1ccc(C(Nc2cccnc2)c2cc(Cl)c3cccnc3c2O)cc1 (racemic) [CB 7969312] | – | – | 96.2 ± 1.2 | non-toxic to cells | 31.2 ± 3 | concentration well-tolerated by the cells [4]: up to 50 μM; inhibition of SNAP-25 cleavage [6]: near-to-complete inhibition
10 | Oc1c(C(Nc2cccnc2)c2ccc(F)cc2)cc(Cl)c2cccnc12 (stereo not drawn) [Compound 5116-051A] | < 1000 | 91 | – | – | – | –
11 | CRATKML [Ac-CRATKML-NH2, reference compound] | – | – | – | – | – | Average Time to 50% Loss of Twitch Tension [2]: 52.70 ± 9.30^c min and 65.0 ± 11.5^c min
12 | Oc1c(C(Nc2cccnc2)c2ccccc2F)ccc2cccnc12 (racemic) [CB 7968218] | – | – | 92.8 ± 0.8 | non-toxic to cells | 16.8 ± 2.2 | effective concentration of inhibitor required for maximum protection [2]: 10 µM; concentration toxic to N2a cells [4]: above 45 μM; protection from SNAP-25 cleavage [6]: 68%
